From PubChem BioAssay (NCI)
Where “and” joins values, the source holds several entries; their conditions need not be identical. Identical values can stand only once.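 48-hour exposure; five concentrations; linearly interpolated endpoints. Abbreviation: GI50, concentration required for 50% inhibition of growth. TGI marks complete inhibition of growth.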

How the values were obtained:
Assay in all cases: inhibition of tumour cell growth, NCI panel, 48 h
CAKI-1 renal = system: CAKI-1 renal
NCI-H226 lung = system: NCI-H226 lung
HCT-15 colon = system: HCT-15 colon
HL-60(TB) leukemia = system: HL-60(TB) leukemia
SK-MEL-2 melanoma = system: SK-MEL-2 melanoma
TK-10 renal = system: TK-10 renal
SW-620 colon = system: SW-620 colon
HS 578T breast = system: HS 578T breast

Row | Structure (SMILES) | GI50 (CAKI-1 renal) | TGI (CAKI-1 renal) | GI50 (NCI-H226 lung) | TGI (NCI-H226 lung) | GI50 (HCT-15 colon) | TGI (HCT-15 colon) | GI50 (HL-60(TB) leukemia) | TGI (HL-60(TB) leukemia) | GI50 (SK-MEL-2 melanoma) | TGI (SK-MEL-2 melanoma) | GI50 (TK-10 renal) | TGI (TK-10 renal) | GI50 (SW-620 colon) | TGI (SW-620 colon) | GI50 (HS 578T breast) | TGI (HS 578T breast)
1 | O=C(CCc1ccco1)NC1CCN(CC2(c3ccc(Cl)cc3)CCC2)CC1 | 13.3 µM | 27.2 µM | 20.8 µM | 60.2 µM | 6.27 µM | 20.3 µM | 15.5 µM | 38.9 µM | 16.9 µM | 31.7 µM | 14.5 µM | 28.3 µM | 15.5 µM | 30.5 µM | 13.6 µM | 31.4 µM
2 | Clc1ccccc1-c1nc(-c2ccncc2)no1 | – | > 100 µM | – | > 100 µM | – | > 100 µM | – | 29.2 µM | – | > 100 µM | – | > 100 µM | – | > 100 µM | – | > 100 µM
3 | Cc1cc(S(N)(=O)=O)c(S/C(=N\Nc2ccc([N+](=O)[O-])cc2)c2ccc(O)cc2)cc1Cl | 2.3 µM | 5.22 µM | 2.67 µM | 7.08 µM | 3.54 µM | 23.2 µM | 1.98 µM | > 100 µM | 3.9 µM | 53.3 µM | 2.01 µM | 5.16 µM | 3.54 µM | 11.6 µM | 2.92 µM | 9.27 µM
4 | Cc1ccc(Nc2[nH]c(C(=O)c3ccc(Cl)cc3)c(N)c2C(=S)Nc2ccccc2)nc1 | 25.3 µM | 76.4 µM | 26 µM | 91.3 µM | 31 µM | > 100 µM | 63.3 µM | > 100 µM | 28.1 µM | > 100 µM | 28.1 µM | > 100 µM | 32.7 µM | > 100 µM | 21.8 µM | 76.2 µM
5 | COc1ccc2c(c1)C(=O)c1c-2c(OCCN(C)C)nc2cc(OC)ccc12 | 2.12 µM | 11.1 µM | 1.33 µM | 3.32 µM | 0.475 µM | 2.39 µM | 1.98 µM | 4.26 µM | 3.31 µM | 10.3 µM | 3.14 µM | 13.7 µM | 0.446 µM | 1.73 µM | 2.84 µM | 9.76 µM
6 | CSC1=Nc2c(c(C)c(-c3ccccc3)n2CCCCl)C2=NC(=O)CN12 | 4.6 µM | 28.1 µM | 11 µM | 29.8 µM | 4.11 µM | 21.4 µM | 3.41 µM | > 100 µM | 10.4 µM | 27.6 µM | 8.45 µM | 78.3 µM | 4.79 µM | 53.5 µM | 6.3 µM | 35 µM
7 | O=c1c2[nH]c3ccccc3c2nc2n1CCS2 | 38.7 µM | > 100 µM | > 100 µM | > 100 µM | 68.5 µM | > 100 µM | 17.5 µM | > 100 µM | > 100 µM | > 100 µM | > 100 µM | > 100 µM | > 100 µM | > 100 µM | 26.9 µM | > 100 µM
8 | COc1cc(CNc2nc3cc(N)cc(N)c3nc2-c2ccccc2)cc(OC)c1OC | 1.9 µM | 8.76 µM | 9.96 µM | 22.4 µM | 3.27 µM | 13.9 µM | 1.25 µM | > 50 µM | 16.1 µM | > 50 µM | 6.25 µM | 17.9 µM | 1.54 µM | 4.51 µM | 3 µM | 33.4 µM
9 | COc1ccc2[nH]c(-c3ccccc3)c(C=C(C#N)C#N)c2c1 | 4.13 µM | > 100 µM | 3.51 µM | 57.6 µM | 3.23 µM | > 100 µM | 2.5 µM | 13.2 µM | 5.87 µM | > 100 µM | 5.07 µM | > 100 µM | 3.62 µM | > 100 µM | 2.35 µM | 25.4 µM
10 | COc1cc(/C=C2\CCCC3C2=Nc2ccccc2NC3c2cc(OC)c(OC)c(OC)c2)cc(OC)c1OC (centres undefined) | 3.31 µM | > 100 µM | 1.93 µM | 4.19 µM | 1.77 µM | 4.08 µM | 2.44 µM | 4.97 µM | 3.1 µM | 8.33 µM | 3.49 µM | 17.7 µM | 1.6 µM | 6.77 µM | 4.75 µM | > 100 µM
11 | COc1cc(OC)cc(-c2ccc(-c3ccc(C(=N)N)s3)s2)c1 | 1.38 µM | 2.78 µM | 1.61 µM | 3.71 µM | 0.294 µM | 1.01 µM | 1.23 µM and 0.174 µM | 2.74 µM and 0.374 µM | 1.62 µM | 3.14 µM | 1.84 µM | 3.39 µM | 0.291 µM | 1.02 µM | 1.35 µM | 3.22 µM
12 | COc1cc(-c2nc3ccccc3[nH]2)ccc1OCC(=O)N=Nc1c(O)[nH]c2ccc(Cl)cc12 | 1.81 µM | 3.55 µM | 1.83 µM | 3.74 µM | 4.9 µM | > 100 µM | 1.93 µM | 4.42 µM | 1.76 µM | 3.34 µM | 2.58 µM | 5.77 µM | 0.748 µM | 2.42 µM | – | –
13 | COc1ccc(C2=CC(c3ccc(Oc4ccnc5cc(Cl)ccc45)c(OC)c3)c3c(nc(OC)[nH]c3=O)N2)cc1 (centres undefined) | 15.5 µM | > 100 µM | 16.4 µM | > 100 µM | 3.85 µM | > 100 µM | 3.51 µM | 45.5 µM | 31.6 µM | > 100 µM | – | – | 4.34 µM | > 100 µM | 7.04 µM | > 100 µM
14 | FC(F)(F)c1[nH]ncc1-c1nc2c(N3CCCCC3)cc3[nH]ncc3c2c2c1CCCC2 | 0.711 µM | 3.06 µM | – | – | 1.07 µM | > 16.5 µM | 1.23 µM | 3.32 µM | 0.968 µM | 2.31 µM | 0.615 µM | > 50 µM | 0.556 µM | 2.67 µM | 0.603 µM | 2 µM
15 | COc1ccc(N2CCN(CN3CCN(c4ccc(OC)cc4)C3)C2)cc1 | > 100 µM | > 100 µM | > 100 µM | > 100 µM | 37 µM | > 100 µM | – | – | > 100 µM | > 100 µM | > 100 µM | > 100 µM | 28.2 µM | > 100 µM | > 100 µM | > 100 µM
